Measurements: US5244915A, “Amico acid derivatives cyclized at the C-terminal” (Warner-Lambert Company, priority 1991, dated 1993)

Legend:
CCK B = molecular target: T1, CCK B (Mus musculus, UniProt P56481); test: CCK receptor binding, displacement of tritiated-pentagastrin from cerebral cortical membranes (CCK B); design: species or system mouse (male CFLP); conditions: mouse cerebral cortex membranes, 2 nM tritiated-pentagastrin
T1 construct: from tissue; host or cells: cerebral cortex of male CFLP mice (30-40 g), washed membranes
T1 sequence (P56481 1-453): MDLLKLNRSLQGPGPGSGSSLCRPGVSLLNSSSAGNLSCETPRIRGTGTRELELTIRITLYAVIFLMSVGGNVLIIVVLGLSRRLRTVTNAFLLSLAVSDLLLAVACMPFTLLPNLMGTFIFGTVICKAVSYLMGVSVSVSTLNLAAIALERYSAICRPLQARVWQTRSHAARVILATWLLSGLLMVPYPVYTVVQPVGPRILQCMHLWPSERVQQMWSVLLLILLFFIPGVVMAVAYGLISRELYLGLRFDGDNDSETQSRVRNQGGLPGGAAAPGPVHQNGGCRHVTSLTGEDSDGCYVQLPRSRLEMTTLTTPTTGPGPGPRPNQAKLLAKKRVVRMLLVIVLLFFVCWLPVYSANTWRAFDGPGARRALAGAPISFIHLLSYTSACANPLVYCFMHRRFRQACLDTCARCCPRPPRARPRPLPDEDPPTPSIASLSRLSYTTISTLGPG
Description: (§1) The biological activity of compounds of the present invention was evaluated employing an initial screening test which rapidly and accurately measured the binding of the tested compound to known CCK receptor sites. […] (See Hays et al, Neuropeptides 1:53-62, 1980; and Satuer et al, Science 208:1155-1156, 1980.
In this screening test, the cerebral cortices taken from male CFLP mice weighing between 30-40 g were dissected on ice, weighed, and homogenized in 10 volumes of 50 mM Tris-HCl buffer (pH 7.4 at 0°-4° C.). The resulting suspension was centrifuged, the supernate was discarded, and the pellet was washed by resuspension in Tris-HCl buffer followed by recentrifugation. The final pellet was resuspended in 20 volumes of […] buffer (pH 7.2 at 23° C.) containing 130 mM NaCl, […], […], […], 5 mg/mL bovine albumin, and bacitracin (0.25 mg/ml).
In saturation studies, cerebral cortical membranes were incubated at 23° C. for 120 minutes in a final volume of 500 μliter of Hepes incubation buffer (pH 7.2) together with 0.2-20 nM tritiated-pentagastrin (Amersham International, England).
In the displacement experiments, membranes were incubated with a single concentration (2 nM) of ligand, together with increasing concentrations (10^-11 to […]) of competitive test compound. In each case, the nonspecific binding was defined as that persisting in the presence of the unlabeled octapeptide CCK26-33 (10^-6 M).
Following incubation, radioactivity bound to membranes was separated from that free in solution by rapid filtration through Whatman GF/B filters and washed three times with 4 mL of ice cold Tris-HCl buffer. Filters from samples incubated with tritiated-pentagastrin were placed in polyethylene vials with 4 mL of scintillation cocktail, and the radioactivity was estimated by liquid scintillation spectrometry (efficiency 47-52%).
The specific binding to CCK receptor sites was defined as the total bound tritiated-pentagastrin minus the amount of tritiated-pentagastrin bound in the presence of 10^-6 octapeptide, CCK 26-33.
Saturation curves for specific tritiated-pentagastrin binding to mouse cortical membranes were analyzed by the methods of Scatchard (Ann. New York Acad. Sci. 51:660-672, 1949, and Hill (J. Phvsiol. 40:IV-VIII, 1910, to provide estimates for the maximum number of binding sites (Bmax) and the equilibrium dissociation constant (Ka).
In displacement experiments, inhibition curves were analyzed by either logit-log plots or the iterative curve fitting computer program ALLFIT (DeLean, Munson and Redbard, 1978) to provide estimates of the IC50 and nH (apparent Hill coefficient) values). (IC50 values were defined as the concentration of test compound required to produce 50% inhibition of specific binding.)
(§2) The inhibition constant (Ki) of the test compound was then calculated according to the Cheng-Prusoff equation: [formula] where [L] is the concentration of radiolabel and Ka is the equilibrium dissociation constant.

CCK A = test: CCK receptor binding (CCK A); conditions: assay not described
Description: as §1, §2

C[C@](Cc1c[nH]c2ccccc12)(NC(=O)OC1C2CC3CC(C2)CC1C3)C(=O)N1CCc2ccccc2C1 (stereo partly drawn) [Compound 8, Carbamic acid, [1-(1H-indol-3-ylmethyl)-1-methyl-2-oxo-2-(1,2,3,4-tetrahydro-2-isoquinolinyl)ethyl]-, tricyclo[3.3.1.1^3.7]-dec-2-yl ester, (R)-]
Ki (CCK B): 450 nM

CC1(C)[C@H]2CC[C@]1(C)[C@H](OC(=O)N[C@](C)(Cc1c[nH]c3ccccc13)C(=O)N[C@H]1Cc3ccccc3[C@@H]1O)C2 [Compound 2, Carbamic acid, [2-[(2,3-dihydro-1-hydroxy-1H-inden-2-yl)amino]-1-1H-indol-3-ylmethyl)-2-methyl-2-oxoethyl]-, 1,7,7-trimethylbicyclo-[2.2.1]hept-2-yl ester, [1S*[1α,2β[S-(trans)],4α]]-]
Ki (CCK B): 111 nM
Ki (CCK A): 5300 nM

CC(Cc1c[nH]c2ccccc12)(NC(=O)OC1C2CC3CC(C2)CC1C3)C(=O)NC1CCc2ccccc2C1 (racemic) [Compound 7, Carbamic acid, [1-1H-indol-3-ylmethyl)-1-methyl-2-oxo-2 [(1,2,3,4-tetrahydro-2-naphthalenyl)amino]ethyl]-, tricyclo[3.3.1.1^3,7]-dec-2-yl ester, (±)-]
Ki (CCK B): 330 nM

CC1(C)[C@H]2CC[C@]1(C)[C@H](OC(=O)N[C@](C)(Cc1c[nH]c3ccccc13)C(=O)NC1CCc3ccccc3C1=O)C2 (single isomer, unassigned) [Compound 4, Carbamic acid, [1-(1H-indol-3-ylmethyl)-1 methyl-2-oxo-2-[(1,2,3,4-tetrahydro-1-oxo 2-naphthalenyl)amino]ethyl]-, 1,7,7-trimethyl-bicyclo[2.2.1]hept-2-yl ester]
Ki (CCK B): 94 nM
Ki (CCK A): 7620 nM

CC1(C)[C@H]2CC[C@]1(C)[C@H](OC(=O)N[C@](C)(Cc1c[nH]c3ccccc13)C(=O)NC1c3ccccc3CC1O)C2 (stereo partly drawn) [Compound 1, Carbamic acid, [2-[(2,3-dihydro-2-hydroxy-1H-inden-1-yl)amino]-1-(1H-indol-3-ylmethyl)-1-methyl-2-oxoethyl]-, 1,7,7-trimethylbicyclo-[2.2.1]hept 2-yl ester]
Ki (CCK B): 280 nM

CC1(C)[C@H]2CC[C@]1(C)[C@H](OC(=O)N[C@](C)(Cc1c[nH]c3ccccc13)C(=O)NC1CCc3ccccc3C1=O)C2 (single isomer, unassigned) [Compound 5, Carbamic acid, [1-(1H-indol-3 ylmethyl)-1-methyl-2-oxo-2-[(1-2,3,4-tetrahydro-1-oxo-2-naphthalenyl)amino]ethyl]-, 1,7,7-trimethylbicyclo[2.2.1.1]hept-2-yl ester]
Ki (CCK B): 59 nM

CC1(C)[C@H]2CC[C@]1(C)[C@H](OC(=O)N[C@](C)(Cc1c[nH]c3ccccc13)C(=O)N[C@@H]1Cc3ccccc3[C@H]1O)C2 [Compound 3, Carbamic acid, [2-[(2,3-dihydro 1-hydroxy-1H-inden-2-yl)amino]-1-(1H-indol-3-ylmethyl)-1-methyl-2-oxoethyl]-, 1,7,7-trimethylbicyclo-[2.2.1]hept-2-yl ester, [1S-[1α,2β[S*(1S*,2S*)],4α]]-]
Ki (CCK B): 30 nM
Ki (CCK A): 3870 nM

CC(Cc1c[nH]c2ccccc12)(NC(=O)OC1C2CC3CC(C2)CC1C3)C(=O)NC1CCCc2ccccc21 (racemic) [Compound 6, Carbamic acid, [1-(1H-indol-3-ylmethyl)-1-methyl-2-oxo-2-[(1,2,3,4-tetrahydro-1-naphthalenyl)amino]ethyl]-, tricyclo[3.3.1.1^3,7]-dec-2-yl ester, (±)-]
Ki (CCK B): 45 nM
Ki (CCK A): 5220 nM
